Data: patent US12435061B2 (priority 2020, dated 2025)
≈ marks a conversion by molar mass, not a printed value. Read-outs that look alike come from different tables or passages of the source.

Assays:
[1] = target: hTRPV3 (Homo sapiens (Human), UniProt Q8NET8); assay: Whole-cell patch clamp, hTRPV3 Phase 1 / Phase 2 currents; assay type: cell-based
How it was run: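 Currents are activated by 20 μM 2-APB or by perfusate at 28 °C or warmer, in Ringer's solution, and quantified at ±80 mV.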

[2] = Aqueous solubility assay in Normal Ringer Solution; conditions: Normal Ringer Solution; for solubility at 40 min: saline or isotonic, kinetic from dmso stock
Procedure: Following vortex and incubation for a sufficient time (e.g. 40 minutes at room temperature), solutions were filtered, quenched with acetonitrile, and analyzed by Liquid Chromotography. Solubility Limits were determined by comparison to a standard curve.

[3] = Metabolic Stability assay, rat liver microsomes; assay type: in vitro ADME
Procedure: Metabolic Stability assay: The metabolic stability was determined by adding compound dissolved in DMSO to human or rat, liver microsomes. Briefly, assays were run with a starting concentration of 1 μM test article. The reaction was started by addition of NADPH regeneration components at 37° C. at which time an aliquot was immediately quenched in ice-cold acetonitrile/MeOH/H2O solution. Reaction mixture was incubated at 37° C. on a shaker, and additional aliquots were taken at 7, 15, 30 and 60 minutes. Following quench and centrifugation, samples were analyzed on HPLC/MS/MS.

[4] = Phase 1 current, inward, whole-cell patch clamp, read-out: hTRPV3 Patch P1 Inwd
[5] = Phase 1 current, read-out: hTRPV3 (nM) (Phase 1)
[6] = Phase 2 current, inward, whole-cell patch clamp, read-out: hTRPV3 Patch P2 Inwd
[7] = Phase 2 current, read-out: hTRPV3 (nM) (Phase 2)
[8] = Phase 1 current, human TRPV3, read-out: hTRPV3 (nM) Phase 1

Sequence of hTRPV3 (Q8NET8 whole entry): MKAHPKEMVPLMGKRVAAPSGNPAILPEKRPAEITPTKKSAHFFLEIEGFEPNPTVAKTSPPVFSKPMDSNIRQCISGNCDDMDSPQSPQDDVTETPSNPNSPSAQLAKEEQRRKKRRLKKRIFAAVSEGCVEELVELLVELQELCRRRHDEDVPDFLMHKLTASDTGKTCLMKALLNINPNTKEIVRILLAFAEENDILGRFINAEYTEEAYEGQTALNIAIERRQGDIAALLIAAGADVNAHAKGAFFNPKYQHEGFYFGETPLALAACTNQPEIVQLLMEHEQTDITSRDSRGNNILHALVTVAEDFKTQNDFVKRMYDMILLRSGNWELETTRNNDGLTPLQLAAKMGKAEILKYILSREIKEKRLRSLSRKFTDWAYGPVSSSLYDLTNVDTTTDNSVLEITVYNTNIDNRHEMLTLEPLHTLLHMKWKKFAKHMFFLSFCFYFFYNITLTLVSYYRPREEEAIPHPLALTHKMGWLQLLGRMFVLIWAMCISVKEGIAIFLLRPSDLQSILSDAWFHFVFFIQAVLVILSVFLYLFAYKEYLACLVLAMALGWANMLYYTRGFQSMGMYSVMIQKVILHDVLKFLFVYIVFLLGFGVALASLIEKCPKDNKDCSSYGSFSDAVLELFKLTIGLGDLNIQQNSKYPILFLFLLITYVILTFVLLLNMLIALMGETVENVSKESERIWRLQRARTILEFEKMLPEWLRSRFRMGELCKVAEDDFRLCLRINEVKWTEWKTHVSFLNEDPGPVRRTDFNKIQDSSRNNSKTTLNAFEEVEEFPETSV

| SMILES | IC50 [1, 4] [nM] | IC50 [1, 5] [nM] | IC50 [1, 6] [nM] | IC50 [1, 7] [nM] | half-life at 1 μM ([3]; read-out: LM T1/2 (min) (rat)) | solubility at 40 min [2] [µM] | other results |
| --- | --- | --- | --- | --- | --- | --- | --- |
| Oc1cc(-c2ccccc2Cl)ccc1N1CC[C@@H](Oc2ccc(C(F)(F)F)cn2)C1 [Compound 1-113, (R)-2′-chloro-4-(3-(5-(trifluoromethyl)pyridin-2-yloxy)pyrrolidin-1-yl)biphenyl-3-ol] | 100 to 1000 | ~97.5 | 100 to 1000 | 109 | 33.5 | – | Solubility Ringer (nM) ([2]; room temperature): BLQ |
| OCCOc1cc(-c2ccccc2)ccc1N1CC[C@@H](Oc2ccc(C(F)(F)F)cn2)C1 [Compound 1-117, (R)-2-(4-(3-(5-(trifluoromethyl)pyridin-2-yloxy)pyrrolidin-1-yl)biphenyl-3-yloxy)ethanol] | > 1000 | 1920 | 100 to 1000 | 486 | 79.8 | ~2 (≈ 0.889 µg/mL) | – |
| OCCOc1cc(-c2ccccc2Cl)ccc1N1CC[C@H](Oc2ccc(C(F)(F)F)cn2)C1 [Compound 1-133, (S)-2-(2′-chloro-4-(3-(5-(trifluoromethyl)pyridin-2-yloxy)pyrrolidin-1-yl)biphenyl-3-yloxy)ethanol] | > 1000 | 1120 | – | – | 55 | 0.56 (≈ 0.268 µg/mL) | – |
| NC(=O)c1cc(C(=O)c2ccccc2)ccc1N1CC[C@H](Oc2ncccc2Cl)C1 [Compound 1-136, (S)-5-benzoyl-2-(3-(3-chloropyridin-2-yloxy)pyrrolidin-1-yl)benzamide] | – | – | – | – | 19.7 | > 15 | IC50 ([1]; hTRPV3 Patch P1 Inwd (nM)): > 1000 nM; IC50 ([1]; hTRPV3 Patch P2 Inwd (nM)): > 1000 nM; IC50 ([1]; read-out: hTRPV3 (nM) (Phase 1)): 1620 nM; IC50 ([1]; read-out: hTRPV3 (nM) (Phase 2)): 1670 nM |
| Cc1ccc(O[C@H]2CCN(c3ccc(-c4ccccc4)cc3CO)C2)nc1 [Compound 1-141, (S)-(4-(3-(5-methylpyridin-2-yloxy)pyrrolidin-1-yl)biphenyl-3-yl)methanol] | 100 to 1000 | 125 | – | – | 38.4 | ~0.97 (≈ 0.35 µg/mL) | – |
| OCCc1cc(-c2ccccc2)ccc1N1CC[C@H](Oc2ccc(C(F)(F)F)cn2)C1 [Compound 1-142, (S)-2-(4-(3-(5-(trifluoromethyl)pyridin-2-yloxy)pyrrolidin-1-yl)biphenyl-3-yl)ethanol] | 100 to 1000 | 275 | – | – | 65.2 | – | Solubility Ringer (nM) ([2]; room temperature): BLQ |
| COc1ccccc1-c1ccc(N2CC[C@H](Oc3ccc(C(F)(F)F)cn3)C2)c(CO)c1 [Compound 1-151, (S)-(2′-methoxy-4-(3-(5-(trifluoromethyl)pyridin-2-yloxy)pyrrolidin-1-yl)biphenyl-3-yl)methanol] | 100 to 1000 | 125 | – | – | 38.9 | – | Solubility Ringer (nM) ([2]; room temperature): BLQ |
| CC(=O)c1ccccc1-c1ccc(N2CC[C@H](Oc3ccc(C(F)(F)F)cn3)C2)c(CO)c1 [Compound 1-157, (S)-1-(3′-(hydroxymethyl)-4′-(3-(5-(trifluoromethyl)pyridin-2-yloxy)pyrrolidin-1-yl)biphenyl-2-yl)ethanone] | 100 to 1000 | 211 | – | – | 17.5 | ~1.8 (≈ 0.822 µg/mL) | – |
| COCc1ccccc1-c1ccc(N2CC[C@H](Oc3ccc(C(F)(F)F)cn3)C2)c(CO)c1 [Compound 1-160, (S)-(2′-(methoxymethyl)-4-(3-(5-(trifluoromethyl)pyridin-2-yloxy)pyrrolidin-1-yl)biphenyl-3-yl)methanol] | 10 to 100 | 71.6 | 100 to 1000 | 106 | 19.1 | ~0.4 (≈ 0.183 µg/mL) | – |
| O=C(CO)c1cc(-c2ccccc2)ccc1N1CC[C@H](Oc2ccc(C(F)(F)F)cn2)C1 [Compound 1-178, (S)-2-hydroxy-1-(4-(3-(5-(trifluoromethyl)pyridin-2-yloxy)pyrrolidin-1-yl)biphenyl-3-yl)ethanone] | – | – | 100 to 1000 | 146 | 66.5 | ~0.2 (≈ 0.0885 µg/mL) | – |
| COc1ccccc1Oc1ccc(N2CC[C@H](Oc3ccc(C)cn3)C2)c(CO)n1 [Compound 1-205, (S)-(6-(2-methoxyphenoxy)-3-(3-(5-methylpyridin-2-yloxy)pyrrolidin-1-yl)pyridin-2-yl)methanol] | > 1000 | ~3000 | > 1000 | ~6000 | 16 | > 7.2 | – |
| Cc1ccccc1C(O)c1ccc(N2CC[C@H](Oc3ncccc3F)C2)c(CO)c1 (stereo partly drawn) [Compound 1-231, (4-((S)-3-(3-fluoropyridin-2-yloxy)pyrrolidin-1-yl)-3-(hydroxymethyl)phenyl)(o-tolyl)methanol] | – | – | – | – | 16.3 | > 26.8 | – |
| Cc1ccccc1C(=O)c1ccc(N2CC[C@H](Oc3ncccc3F)C2)c(CO)c1 [Compound 1-243, (S)-(4-(3-(3-fluoropyridin-2-yloxy)pyrrolidin-1-yl)-3-(hydroxymethyl)phenyl)(o-tolyl)methanone] | 100 to 1000 | 296 | – | – | 6.26 | ~7.34 (≈ 2.98 µg/mL) | – |
| Cc1ccccc1C(=O)c1ccc(N2CC[C@H](Oc3ncccc3Cl)C2)c(CO)c1 [Compound 1-246, (S)-(4-(3-(3-chloropyridin-2-yloxy)pyrrolidin-1-yl)-3-(hydroxymethyl)phenyl)(o-tolyl)methanone] | 100 to 1000 | 136 | 100 to 1000 | 136 | 7.36 | ~1.87 (≈ 0.791 µg/mL) | – |
| Cc1ccccc1C(O)c1ccc(N2CC[C@H](Oc3ncccc3Cl)C2)c(CO)c1 (stereo partly drawn) [Compound 1-247, (4-((S)-3-(3-chloropyridin-2-yloxy)pyrrolidin-1-yl)-3-(hydroxymethyl)phenyl)(o-tolyl)methanol] | 100 to 1000 | 132 | 100 to 1000 | 202 | 13.1 | > 9 | – |
| CCc1ccccc1C(=O)c1ccc(N2CC[C@H](Oc3ncccc3Cl)C2)c(CO)c1 [Compound 1-251, (S)-(4-(3-(3-chloropyridin-2-yloxy)pyrrolidin-1-yl)-3-(hydroxymethyl)phenyl)(2-ethylphenyl)methanone] | 10 to 100 | 102 | – | – | – | – | Solubility Ringer ([2]; room temperature): >3.6 µM; LM T1/2 (min) (rat) ([3]; 1 μM): 6.25 (rat) min |
| CCc1ccccc1C(=O)c1ccc(N2CC[C@H](Oc3ncccc3Cl)C2)c(CO)c1 [Compound 1-256, (S)-(4-(3-(3-chloropyridin-2-yloxy)pyrrolidin-1-yl)-3-(hydroxymethyl)phenyl)(2-ethylphenyl)methanone] | 10 to 100 | 50.9 | – | – | 6.05 | ~0.45 (≈ 0.197 µg/mL) | – |
| OCc1cc(C(O)c2ccccc2Cl)ccc1N1CC[C@H](Oc2ncccc2F)C1 (stereo partly drawn) [Compound 1-264, (2-chlorophenyl)(4-((S)-3-(3-fluoropyridin-2-yloxy)pyrrolidin-1-yl)-3-(hydroxymethyl)phenyl)methanol] | 10 to 100 | 54.1 | 10 to 100 | 79.3 | 19.4 | > 13.2 | – |
| CCc1ccccc1Oc1ccc(N2CC[C@H](Oc3ncccc3F)C2)c(CO)c1 [Compound 1-267, (S)-(5-(2-ethylphenoxy)-2-(3-(3-fluoropyridin-2-yloxy)pyrrolidin-1-yl)phenyl)methanol] | 10 to 100 | 19.1 | – | – | 30.6 | ~0.38 (≈ 0.155 µg/mL) | – |
| CCc1ccccc1Oc1ccc(N2CC[C@H](Oc3ncccc3C)C2)c(CO)c1 [Compound 1-268, (S)-(5-(2-ethylphenoxy)-2-(3-(3-methylpyridin-2-yloxy)pyrrolidin-1-yl)phenyl)methanol] | < 10 | 2.8 | < 10 | ~2.54 | 22 | 0.25 (≈ 0.101 µg/mL) | – |
| Cc1cccc(C(=O)N2CCC(c3ccc(Oc4ccccc4C(C)C)cc3C(N)=O)C2)n1 (stereo not drawn) [Compound 2-33, 5-(2-isopropylphenoxy)-2-(1-(6-methylpicolinoyl)pyrrolidin-3-yl)benzamide] | 100 to 1000 | – | – | – | – | – | IC50 [1, 8]: 645 nM; half-life at 1 μM ([3]; read-out: LM T1/2 (min) rat): 11 min |
| CCc1ccccc1-c1ccc(C2CCN(C(=O)c3ccc(F)cn3)C2)c(C(N)=O)c1 (stereo not drawn) [Compound 2-34, 2′-ethyl-4-(1-(5-fluoropicolinoyl)pyrrolidin-3-yl)biphenyl-3-carboxamide] | 100 to 1000 | – | – | – | – | – | IC50 [1, 8]: 337 nM; half-life at 1 μM ([3]; read-out: LM T1/2 (min) rat): 26.4 min |
| CC(C)c1ccccc1-c1ccc(C2CCN(C(=O)c3ncccc3Cl)C2)c(CO)c1 (stereo not drawn) [Compound 2-36] | 10 to 100 | – | – | – | – | – | IC50 [1, 8]: 39.3 nM; half-life at 1 μM ([3]; read-out: LM T1/2 (min) rat): 11.2 min |
| O=C(c1cccc(Cl)n1)N1CCC(c2ccc(-c3ccccc3C3CC3)cc2CO)C1 (stereo not drawn) [Compound 2-57, (6-chloropyridin-2-yl)(3-(2′-cyclopropyl-3-(hydroxymethyl)biphenyl-4-yl)pyrrolidin-1-yl)methanone] | < 10 | – | – | – | – | – | IC50 [1, 8]: 7.34 nM; half-life at 1 μM ([3]; read-out: LM T1/2 (min) rat): 32.3 min |
| CC(C)c1ccccc1Oc1ccc(C2CCN(C(=O)Cc3ccccn3)C2)c(CO)c1 (stereo not drawn) [Compound 2-116] | – | – | – | – | – | – | IC50 [1, 8]: ~3500 nM; IC50 ([1]; Phase 2 current, human TRPV3, read-out: hTRPV3 (nM) Phase 2): 2600 nM; half-life at 1 μM ([3]; read-out: LM T1/2 (min) rat): 3.62 min |
